Results as given in patent US20080051381A1, “Suppression of estrus in mares by a single injection method” (priority 2006, published 2008).
Marks after values point to notes of the source that are not given here.

Experiments:
[1] = tested on: estrus and ovulation in mares; details: prior knowledge; cited from earlier work
[2] = tested on: estrus and ovulation in light-horse mares; assay: Suppression of estrus and ovulation in mares after a single sustained release injection; type: in vivo, mares (equine)
Experimental: Thirty one randomly selected light-horse mares are maintained on native pasture and ad libitum hay. Verification of normal reproductive cyclicity is determined by follicular ultrasound, teasing with a vigorous stallion, and radioimmunoassay of plasma progesterone concentrations. Mares displaying estrus (i.e. the estrus mare group) with plasma progesterone levels below 1 ng/mL are followed by ultrasound until a follicle 30 mm or greater is determined. When a follicle reaches 30 mm, 2 mL of 2000 IU human chorionic gonadotropin is administered to induce ovulation. Mares in the estrus group are subsequently followed by ultrasound until ovulation and corpus luteal formation are verified. Six days after ovulation is determined, mares in this group are given a 2 mL injection of dinoprost tromethamine and randomly assigned to a treatment regime set forth in Table 1.
Mares not displaying estrus (i.e. the non-estrus mare group) with progesterone concentrations above 1 ng/mL and the presence of a corpus luteum verified by ultrasound are given 2 mL dinoprost tromethamine. Once estrus is detected by teasing with a stallion, these mares are treated as the mares assigned to the estrus mare group. […]
The mares of each of the groups in Table 1 are followed via ultrasound every other day after treatment until a follicle 25 mm or greater is detected. […]
Injection site assessments are made on days 0, 1, 3, 6, and 9 post-treatment. […] Plasma concentrations of progesterone are measured with commercially available reagents (Diagnostic Systems Laboratories, Webster, Tex.). […] Data are analyzed by the Proc Mixed procedure of SAS (SAS Institute Inc., Cary, N.C.). Single point variables are analyzed via a one way ANOVA. Data from injection site scores are analyzed for effects of treatment, time, and treatment by time interactions with repeated measures. When a significant F is detected (P<0.05), the least significant difference (LSD) test is used to determine differences between groups within times.

[3] = tested on: injection site swelling in mares; assay: Injection site assessment (swelling score 0-3) in mares; type: in vivo, mares (equine); details: compared to controls (FIG. 1)
Experimental: Injection site assessments are made on days 0, 1, 3, 6, and 9 post-treatment. Scores are based on a subjective scale of 0-3. Zero means no swelling; one means slight diameter swelling (i.e. about 12.5 mm); 2 means moderate diameter swelling (i.e. about 12.5 to 25 mm); and 3 means significant swelling (i.e. more than 25 mm). Plasma concentrations of progesterone are measured with commercially available reagents (Diagnostic Systems Laboratories, Webster, Tex.). Intra- and interassay CV and assay sensitivities are 5%, 8%, and 0.1 ng/mL. Data are analyzed by the Proc Mixed procedure of SAS (SAS Institute Inc., Cary, N.C.). Single point variables are analyzed via a one way ANOVA. Data from injection site scores are analyzed for effects of treatment, time, and treatment by time interactions with repeated measures. When a significant F is detected (P<0.05), the least significant difference (LSD) test is used to determine differences between groups within times.

Row | Compound | Effect on estrus and ovulation (background, in words) [1] | Effectiveness at delaying estrus and ovulation (in words) ([2]; compared to controls) | Days to ovulation ([2]; relative to administration of dinoprost tromethamine and treatment, mean ± SE) | Days to estrus ([2]; single injection on d0 together with 2 mL dinoprost tromethamine, mean ± SE) | Injection site swelling / biocompatibility (in words) [3]
1 | CC(=O)[C@H]1CC[C@H]2[C@@H]3CCC4=CC(=O)CC[C@]4(C)[C@H]3CC[C@]12C [progesterone] | suppress estrus and ovulation | – | – | – | –
2 | CC(=O)O[C@]1(C(C)=O)CC[C@H]2[C@@H]3C[C@H](C)C4=CC(=O)CC[C@]4(C)[C@H]3CC[C@@]21C [Medroxyprogesterone, Medroxyprogesterone acetate] | not to effect estrus, ovulation or pregnancy maintenance | not effective at delaying estrus or ovulation | 11.3 ± 2.14^a days | 6.2 ± 1.38^a days | most biocompatible formulation
3 | C=CC[C@]1(O)CC[C@H]2[C@@H]3CCC4=CC(=O)CCC4=C3C=C[C@@]21C [Altrenogest, 17-α-Allyl-17-β-hydroxyoestra-4,9,11-trien-3-one] | suppress estrus and ovulation | – | – | – | –
